According to ChEMBL document CHEMBL5335866, “Structure-Based Optimization of Selective and Brain Penetrant CK1δ Inhibitors for the Treatment of Circadian Disruptions” (ACS Med Chem Lett, 2024):
Converted amounts (≈) assume the structure as drawn.

Legend:
[1] = Intrinsic clearance in human liver microsomes at 1 uM preincubated for 5 mins followed by NADPH addition measured for 60 mins by LC-MS/MS analysis; assay type: ADME, Microsome; conditions: time 65 min, read-out: CLH
[2] = Intrinsic clearance in rat liver microsomes at 1 uM preincubated for 5 mins followed by NADPH addition measured for 60 mins by LC-MS/MS analysis; assay type: ADME, Microsome; conditions: time 65 min, read-out: CLH
[3] = molecular target: Mitogen-activated protein kinase 14 (Homo sapiens, UniProt Q16539); assay: Inhibition of p38 alpha (unknown origin)
[4] = molecular target: Citron Rho-interacting kinase (Homo sapiens) (UniProt O14578); assay: Inhibition of CRIK (unknown origin) at 1 uM by radiometric assay relative to control
[5] = molecular target: Epithelial discoidin domain-containing receptor 1 (Homo sapiens) (UniProt Q08345); assay: Inhibition of DDR1 (unknown origin) at 1 uM by radiometric assay relative to control
[6] = molecular target: T1, Dual specificity mitogen-activated protein kinase kinase 3 (Homo sapiens) (UniProt P46734); assay: Inhibition of MKK3 (unknown origin) at 1 uM by radiometric assay relative to control
T1 sequence (whole entry): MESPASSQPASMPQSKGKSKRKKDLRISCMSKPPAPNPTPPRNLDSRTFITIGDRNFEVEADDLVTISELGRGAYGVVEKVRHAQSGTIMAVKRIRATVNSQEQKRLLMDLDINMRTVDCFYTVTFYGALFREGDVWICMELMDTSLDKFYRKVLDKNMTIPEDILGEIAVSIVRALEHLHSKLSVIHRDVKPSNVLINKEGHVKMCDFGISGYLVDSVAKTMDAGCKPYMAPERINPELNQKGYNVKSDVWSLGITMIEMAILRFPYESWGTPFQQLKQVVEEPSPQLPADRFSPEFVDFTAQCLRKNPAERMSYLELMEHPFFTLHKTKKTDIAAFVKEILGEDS

[7] = molecular target: T2, Serine/threonine-protein kinase NLK (Homo sapiens) (UniProt Q9UBE8); assay: Inhibition of NLK (unknown origin) at 1 uM by radiometric assay relative to control
T2 sequence (whole entry): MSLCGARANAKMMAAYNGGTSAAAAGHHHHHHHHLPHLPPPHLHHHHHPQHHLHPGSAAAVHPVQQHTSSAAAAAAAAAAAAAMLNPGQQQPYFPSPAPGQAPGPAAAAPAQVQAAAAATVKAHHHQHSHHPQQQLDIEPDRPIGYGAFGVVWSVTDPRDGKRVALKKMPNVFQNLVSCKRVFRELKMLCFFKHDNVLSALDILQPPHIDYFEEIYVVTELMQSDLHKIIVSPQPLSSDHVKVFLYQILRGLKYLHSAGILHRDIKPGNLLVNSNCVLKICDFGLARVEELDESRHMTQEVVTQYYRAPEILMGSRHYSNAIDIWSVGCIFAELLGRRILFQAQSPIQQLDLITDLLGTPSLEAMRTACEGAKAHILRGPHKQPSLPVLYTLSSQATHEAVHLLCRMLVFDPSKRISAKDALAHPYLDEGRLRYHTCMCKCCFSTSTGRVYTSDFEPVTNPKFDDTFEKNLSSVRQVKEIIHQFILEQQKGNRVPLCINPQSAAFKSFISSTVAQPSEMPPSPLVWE

[8] = molecular target: Receptor-interacting serine/threonine-protein kinase 2 (Homo sapiens) (UniProt O43353); assay: Inhibition of RIPK2 (unknown origin) at 1 uM by radiometric assay relative to control
[9] = molecular target: T3, TGF-beta receptor type-1 (Homo sapiens) (UniProt P36897); assay: Inhibition of TGFBR1 (unknown origin) at 1 uM by radiometric assay relative to control
T3 sequence (whole entry): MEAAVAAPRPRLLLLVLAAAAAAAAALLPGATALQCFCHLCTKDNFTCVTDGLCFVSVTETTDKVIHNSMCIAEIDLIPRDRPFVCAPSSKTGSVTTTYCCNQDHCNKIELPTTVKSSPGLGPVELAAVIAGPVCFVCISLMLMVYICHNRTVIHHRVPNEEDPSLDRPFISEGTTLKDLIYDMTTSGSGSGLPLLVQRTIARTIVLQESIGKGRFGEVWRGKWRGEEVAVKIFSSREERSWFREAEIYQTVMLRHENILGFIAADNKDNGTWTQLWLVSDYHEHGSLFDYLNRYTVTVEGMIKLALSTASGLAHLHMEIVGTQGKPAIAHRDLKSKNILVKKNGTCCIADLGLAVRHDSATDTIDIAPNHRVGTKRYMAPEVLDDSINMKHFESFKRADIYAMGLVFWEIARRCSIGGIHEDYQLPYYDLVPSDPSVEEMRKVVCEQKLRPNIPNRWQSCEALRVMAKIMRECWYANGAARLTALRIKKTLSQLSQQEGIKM

[10] = molecular target: TRAF2 and NCK-interacting protein kinase (Homo sapiens, UniProt Q9UKE5); assay: Inhibition of TNIK (unknown origin) at 1 uM by radiometric assay relative to control
[11] = molecular target: Mitogen-activated protein kinase kinase kinase 20 (Homo sapiens) (UniProt Q9NYL2); assay: Inhibition of ZAK (unknown origin) at 1 uM by radiometric assay relative to control
[12] = molecular target: T4, Casein kinase I isoform delta (Homo sapiens, UniProt P48730); assay: Displacement of kinase tracer 8 from NanoLuc-tagged CK1 delta (unknown origin) transfected in CHO cells by BRET assay; assay type: cell-based
[13] = molecular target: T4, Casein kinase I isoform delta; assay: Inhibition of N-terminal GST-tagged recombinant human CK1 delta expressed in Escherichia coli BL21 cells using PLSRTL-pS-VA-pS-LPGL as substrate measured after 60 mins in presence of ATP by ADP-Glo assay
[14] = Solubility of compound at pH 2 measured for 2 to 5 days by HPLC analysis; assay type: physicochemical; conditions: buffer, time 2-5 day
[15] = Solubility of compound at pH 7 measured for 2 to 5 days by HPLC analysis; assay type: physicochemical; conditions: buffer, time 2-5 day
[16] = Apparent permeability across apical to basal side in MDCK cells expressing MDR1 at 5 uM incubated for 60 mins by LC/MS/MS analysis; assay type: ADME, cell-based, Canis lupus familiaris, MDCK1; conditions: dog
MDR1 = assay: Efflux ratio of apparent permeability across basal to apical side over apical to basal side in MDCK cells expressing MDR1 at 5 uM incubated for 60 mins by LC/MS/MS analysis; assay type: ADME, cell-based, Canis lupus familiaris, MDCK1; conditions: dog
[17] = Clearance in Sprague-Dawley rat at 1 mg/kg, iv measured for 24 hrs by LC-MS/MS analysis; assay type: ADME, organism-based; conditions: in vivo
[18] = Volume of distribution at steady state in Sprague-Dawley rat at 1 mg/kg, iv measured for 24 hrs by LC-MS/MS analysis; assay type: ADME, organism-based; conditions: in vivo, read-out: Vdss
[19] = Oral bioavailability in Sprague-Dawley rat at 5 mg/kg measured for 24 hrs by LC-MS/MS analysis; assay type: ADME, organism-based; conditions: in vivo
[20] = Cmax in Sprague-Dawley rat at 5 mg/kg, po measured for 24 hrs by LC-MS/MS analysis; assay type: ADME, organism-based; parameters: dose 5 mg/kg, time 24 hrs, route po; conditions: in vivo
[21] = Half life in Sprague-Dawley rat at 5 mg/kg, po measured for 24 hrs by LC-MS/MS analysis; assay type: ADME, organism-based; conditions: in vivo
[22] = AUC (infinity) in Sprague-Dawley rat at 5 mg/kg, po measured for 24 hrs by LC-MS/MS analysis; assay type: ADME, organism-based; parameters: time 24 hrs, dose 5 mg/kg, route po; conditions: in vivo
[23] = molecular target: Mitogen-activated protein kinase 11 (Homo sapiens, UniProt Q15759); assay: Inhibition of p38 beta (unknown origin)
Sequence of Mitogen-activated protein kinase 11 (Q15759 whole entry): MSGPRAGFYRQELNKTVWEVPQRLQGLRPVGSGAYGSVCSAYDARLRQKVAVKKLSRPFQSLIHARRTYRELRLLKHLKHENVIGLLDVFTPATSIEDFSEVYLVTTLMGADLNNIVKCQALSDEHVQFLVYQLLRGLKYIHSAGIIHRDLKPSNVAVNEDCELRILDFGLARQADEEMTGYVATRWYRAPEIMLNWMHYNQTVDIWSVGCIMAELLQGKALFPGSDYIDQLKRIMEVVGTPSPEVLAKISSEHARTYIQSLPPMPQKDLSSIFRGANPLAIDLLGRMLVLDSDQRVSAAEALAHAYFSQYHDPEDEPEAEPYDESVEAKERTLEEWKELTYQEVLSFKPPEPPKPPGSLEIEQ

Sequence of Receptor-interacting serine/threonine-protein kinase 2 (Homo sapiens) (O43353 whole entry): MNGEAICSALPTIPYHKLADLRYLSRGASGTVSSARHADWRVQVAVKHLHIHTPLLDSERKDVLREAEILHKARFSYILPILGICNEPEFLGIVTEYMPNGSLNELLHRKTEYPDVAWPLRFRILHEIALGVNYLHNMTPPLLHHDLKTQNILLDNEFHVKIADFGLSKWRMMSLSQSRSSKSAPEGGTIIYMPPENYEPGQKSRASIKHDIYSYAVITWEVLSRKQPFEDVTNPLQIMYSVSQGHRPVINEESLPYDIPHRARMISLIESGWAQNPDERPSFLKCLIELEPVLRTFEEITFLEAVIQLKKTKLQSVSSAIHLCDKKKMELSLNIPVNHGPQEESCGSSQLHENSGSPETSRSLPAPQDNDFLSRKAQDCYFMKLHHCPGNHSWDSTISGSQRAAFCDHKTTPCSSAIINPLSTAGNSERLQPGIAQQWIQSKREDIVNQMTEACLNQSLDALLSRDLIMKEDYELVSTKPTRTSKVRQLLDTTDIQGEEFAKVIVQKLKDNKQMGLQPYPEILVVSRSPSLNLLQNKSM
Sequence of Citron Rho-interacting kinase (Homo sapiens) (O14578 whole entry, the tested form may be a part): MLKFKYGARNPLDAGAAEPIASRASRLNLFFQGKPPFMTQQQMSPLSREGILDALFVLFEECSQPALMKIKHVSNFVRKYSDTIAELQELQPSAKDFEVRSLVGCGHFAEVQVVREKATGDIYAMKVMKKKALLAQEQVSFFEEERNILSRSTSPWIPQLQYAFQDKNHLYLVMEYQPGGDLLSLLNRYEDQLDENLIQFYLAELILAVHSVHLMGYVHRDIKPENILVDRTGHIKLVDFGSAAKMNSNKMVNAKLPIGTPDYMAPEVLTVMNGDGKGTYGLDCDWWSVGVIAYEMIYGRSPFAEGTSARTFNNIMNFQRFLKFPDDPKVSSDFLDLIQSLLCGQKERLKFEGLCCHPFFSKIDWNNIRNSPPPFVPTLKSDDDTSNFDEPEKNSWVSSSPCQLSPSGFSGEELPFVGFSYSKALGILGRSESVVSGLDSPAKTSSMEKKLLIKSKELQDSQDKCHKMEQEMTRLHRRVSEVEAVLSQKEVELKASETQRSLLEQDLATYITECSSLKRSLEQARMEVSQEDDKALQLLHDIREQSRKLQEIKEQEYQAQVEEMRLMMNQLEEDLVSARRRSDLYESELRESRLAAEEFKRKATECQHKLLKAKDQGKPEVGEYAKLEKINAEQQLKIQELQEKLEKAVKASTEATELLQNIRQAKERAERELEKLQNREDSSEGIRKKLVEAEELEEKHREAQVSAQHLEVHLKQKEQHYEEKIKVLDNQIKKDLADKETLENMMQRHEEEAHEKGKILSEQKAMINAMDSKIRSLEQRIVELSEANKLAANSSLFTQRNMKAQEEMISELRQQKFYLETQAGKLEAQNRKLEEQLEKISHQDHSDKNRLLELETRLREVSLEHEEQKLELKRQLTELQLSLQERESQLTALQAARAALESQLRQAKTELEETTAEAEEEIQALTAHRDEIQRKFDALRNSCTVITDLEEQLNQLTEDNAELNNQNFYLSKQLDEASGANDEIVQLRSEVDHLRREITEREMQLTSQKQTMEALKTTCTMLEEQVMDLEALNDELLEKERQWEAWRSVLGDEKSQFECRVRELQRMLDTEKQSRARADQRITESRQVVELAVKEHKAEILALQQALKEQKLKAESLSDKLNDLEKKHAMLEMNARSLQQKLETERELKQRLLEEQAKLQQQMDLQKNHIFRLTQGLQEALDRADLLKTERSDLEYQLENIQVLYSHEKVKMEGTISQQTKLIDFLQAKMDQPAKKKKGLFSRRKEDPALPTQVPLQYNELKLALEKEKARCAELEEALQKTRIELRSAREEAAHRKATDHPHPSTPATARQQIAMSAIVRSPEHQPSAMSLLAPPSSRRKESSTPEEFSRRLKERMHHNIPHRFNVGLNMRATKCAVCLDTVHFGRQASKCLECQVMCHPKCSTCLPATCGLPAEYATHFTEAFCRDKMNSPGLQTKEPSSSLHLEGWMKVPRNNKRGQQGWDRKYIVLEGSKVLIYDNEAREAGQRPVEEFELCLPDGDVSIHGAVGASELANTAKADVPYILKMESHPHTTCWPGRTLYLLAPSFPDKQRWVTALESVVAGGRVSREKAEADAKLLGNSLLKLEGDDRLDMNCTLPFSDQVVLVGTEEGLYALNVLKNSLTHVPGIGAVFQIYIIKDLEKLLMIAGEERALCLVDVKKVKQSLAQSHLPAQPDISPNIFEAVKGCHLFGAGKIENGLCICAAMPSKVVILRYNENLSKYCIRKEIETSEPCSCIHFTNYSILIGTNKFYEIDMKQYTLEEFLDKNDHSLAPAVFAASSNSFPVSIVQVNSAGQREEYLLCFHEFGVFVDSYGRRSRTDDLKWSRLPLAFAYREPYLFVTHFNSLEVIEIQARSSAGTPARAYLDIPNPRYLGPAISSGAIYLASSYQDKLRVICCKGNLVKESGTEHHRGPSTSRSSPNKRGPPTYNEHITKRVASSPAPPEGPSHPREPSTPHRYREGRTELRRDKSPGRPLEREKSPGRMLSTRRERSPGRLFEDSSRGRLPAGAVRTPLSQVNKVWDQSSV
T4 sequence (P48730 whole entry, canonical isoform): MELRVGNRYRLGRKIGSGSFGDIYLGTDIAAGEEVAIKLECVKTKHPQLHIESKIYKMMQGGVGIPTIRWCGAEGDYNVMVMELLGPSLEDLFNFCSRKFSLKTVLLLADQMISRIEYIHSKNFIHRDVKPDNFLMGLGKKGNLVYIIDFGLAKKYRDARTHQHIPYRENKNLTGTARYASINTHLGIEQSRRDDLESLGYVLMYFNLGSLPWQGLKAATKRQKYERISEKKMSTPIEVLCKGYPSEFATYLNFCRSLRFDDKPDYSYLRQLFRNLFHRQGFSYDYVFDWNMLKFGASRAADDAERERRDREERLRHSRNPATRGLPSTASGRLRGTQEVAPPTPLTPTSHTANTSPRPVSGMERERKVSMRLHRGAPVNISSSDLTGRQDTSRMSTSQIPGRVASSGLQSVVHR
Sequence of Mitogen-activated protein kinase 14 (Q16539 whole entry): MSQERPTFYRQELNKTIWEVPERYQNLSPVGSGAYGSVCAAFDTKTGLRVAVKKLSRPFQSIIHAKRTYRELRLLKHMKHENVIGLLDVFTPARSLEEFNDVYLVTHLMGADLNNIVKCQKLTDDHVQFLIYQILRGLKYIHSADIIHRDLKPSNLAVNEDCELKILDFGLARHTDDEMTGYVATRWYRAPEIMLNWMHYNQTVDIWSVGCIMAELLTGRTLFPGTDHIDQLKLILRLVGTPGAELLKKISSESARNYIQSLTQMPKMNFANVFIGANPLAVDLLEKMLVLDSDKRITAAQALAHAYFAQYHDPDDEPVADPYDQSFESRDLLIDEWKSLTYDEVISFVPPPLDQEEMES
Sequence of TRAF2 and NCK-interacting protein kinase (Q9UKE5 whole entry, looked up): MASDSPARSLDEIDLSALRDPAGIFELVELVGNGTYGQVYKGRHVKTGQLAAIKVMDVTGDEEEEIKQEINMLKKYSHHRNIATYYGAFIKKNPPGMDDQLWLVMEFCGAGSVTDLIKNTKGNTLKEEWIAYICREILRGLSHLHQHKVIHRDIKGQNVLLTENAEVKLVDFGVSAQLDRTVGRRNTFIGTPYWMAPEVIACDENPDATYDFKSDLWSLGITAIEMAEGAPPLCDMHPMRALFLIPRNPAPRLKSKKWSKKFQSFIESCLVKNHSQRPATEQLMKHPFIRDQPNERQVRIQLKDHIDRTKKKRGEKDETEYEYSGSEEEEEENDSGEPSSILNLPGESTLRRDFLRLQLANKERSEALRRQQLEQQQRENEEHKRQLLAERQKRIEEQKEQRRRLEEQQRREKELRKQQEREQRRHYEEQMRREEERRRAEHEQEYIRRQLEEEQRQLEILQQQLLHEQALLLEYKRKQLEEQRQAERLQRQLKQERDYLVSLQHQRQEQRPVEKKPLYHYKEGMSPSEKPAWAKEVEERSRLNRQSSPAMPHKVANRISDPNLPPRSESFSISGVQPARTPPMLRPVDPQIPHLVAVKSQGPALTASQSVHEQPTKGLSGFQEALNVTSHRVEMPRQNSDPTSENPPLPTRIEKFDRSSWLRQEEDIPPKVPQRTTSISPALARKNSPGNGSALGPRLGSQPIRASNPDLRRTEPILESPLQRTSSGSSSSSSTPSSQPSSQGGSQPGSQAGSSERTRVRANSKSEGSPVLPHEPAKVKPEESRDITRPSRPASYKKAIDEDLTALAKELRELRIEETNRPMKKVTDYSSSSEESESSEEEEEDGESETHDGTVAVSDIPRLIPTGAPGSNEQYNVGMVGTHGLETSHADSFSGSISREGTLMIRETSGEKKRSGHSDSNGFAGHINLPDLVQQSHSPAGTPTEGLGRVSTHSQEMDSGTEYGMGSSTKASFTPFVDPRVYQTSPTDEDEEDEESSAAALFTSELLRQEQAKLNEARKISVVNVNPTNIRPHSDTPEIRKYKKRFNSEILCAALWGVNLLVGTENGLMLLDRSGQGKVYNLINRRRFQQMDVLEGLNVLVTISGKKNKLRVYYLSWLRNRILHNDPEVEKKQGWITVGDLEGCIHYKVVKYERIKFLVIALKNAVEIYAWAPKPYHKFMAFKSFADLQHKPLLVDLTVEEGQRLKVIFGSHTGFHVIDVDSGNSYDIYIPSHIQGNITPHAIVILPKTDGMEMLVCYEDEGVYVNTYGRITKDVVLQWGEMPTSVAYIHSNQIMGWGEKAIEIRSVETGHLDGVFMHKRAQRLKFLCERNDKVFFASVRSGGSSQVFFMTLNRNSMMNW

| Structure (SMILES) | microsomal CLint at 1 µM [1] [µL/min/mg] | microsomal CLint at 1 µM [2] [µL/min/mg] | IC50 [3] [nM] | inhibition [4] [%] | inhibition [5] [%] | inhibition [6] [%] | inhibition [7] [%] | inhibition [8] [%] | inhibition [9] [%] | inhibition [10] [%] | inhibition [11] [%] | IC50 [12] [nM] | further results |
| --- | --- | --- | --- | --- | --- | --- | --- | --- | --- | --- | --- | --- | --- |
| CC1(C)Cn2nc(-c3ccc(F)cn3)c(-c3ccnc4[nH]ccc34)c2CO1 | 15.1 | 42.9 | 2100 | 15 | 25 | 40 | 16 | 39 | 49 | 84 | 20 |  |  |
| Cn1cc(-c2c(C#N)cnc3[nH]ccc23)c(-c2ccc(F)cn2)n1 |  |  | 6200 | 9 | 20 | 11 | 17 | 0 | 17 | 88 | 40 |  |  |
| Cc1cnc2[nH]ccc2c1-c1cn(C)nc1-c1ccc(F)cn1 |  |  | 3000 | 14 | 21 | 19 | 0 | 0 | 8 | 54 | 30 |  |  |
| Cn1cc(-c2ccnc3[nH]ncc23)c(-c2ccc(F)cc2)n1 | 9.4 | 42.2 | 250 |  |  |  |  |  |  |  |  | 36 | IC50 [13]: 1.4 nM; solubility [14]: 112 µM (≈ 32.9 µg/mL); solubility [15]: 8.7 µM (≈ 2.55 µg/mL); Papp A→B at 1 h, 5 µM [16]: 27.3 ×10⁻⁶ cm/s; efflux ratio at 1 h, 5 µM (MDR1): 3; clearance [17]: 23 mL/min/kg; Vd [18]: 1.6 L/kg; bioavailability [19]: 70%; Cmax [20]: 2400 nM; half-life [21]: 2 h; AUC(0-inf) [22]: 2580 ng·h/mL; IC50 [23]: 780 nM |
| Cn1cc(-c2cc(N)nc3[nH]ccc23)c(-c2ccc(F)cn2)n1 |  |  | > 10000 | 0 | 8 | 29 | 0 | 3 | 8 | 39 | 18 |  |  |
| Fc1ccc(-c2nn3c(c2-c2ccnc(NC4CCOCC4)n2)COCC3)cc1 |  |  |  |  |  |  |  |  |  |  |  | 45 |  |
| Fc1ccc(-c2nn3c(c2-c2ccnc4[nH]ncc24)CCC(F)(F)C3)nc1 |  |  |  |  |  |  |  |  |  |  |  | 300 |  |

The remaining compounds from weak to strong by IC50 [3], led by results:

| microsomal CLint at 1 µM [1] [µL/min/mg] | microsomal CLint at 1 µM [2] [µL/min/mg] | IC50 [3] [nM] | inhibition [4] [%] | inhibition [5] [%] | inhibition [6] [%] | inhibition [7] [%] | inhibition [8] [%] | inhibition [9] [%] | inhibition [10] [%] | inhibition [11] [%] | IC50 [12] [nM] | Structure (SMILES) | further results |
| --- | --- | --- | --- | --- | --- | --- | --- | --- | --- | --- | --- | --- | --- |
|  |  | 4000 | 5 | 6 | 44 | 0 | 10 | 59 | 46 | 9 |  | Fc1ccc(-c2nn3c(c2-c2ccnc4[nH]ccc24)COCC3)nc1 |  |
| 7.7 | 53.5 | 930 | 80 | 89 | 74 | 74 | 81 | 98 | 60 | 100 |  | Cn1cc(-c2ccnc3[nH]ccc23)c(-c2ccc(F)cn2)n1 | solubility [14]: > 400 µM; solubility [15]: > 400 µM; Papp A→B at 1 h, 5 µM [16]: 19.6 ×10⁻⁶ cm/s; clearance [17]: 35 mL/min/kg; Vd [18]: 0.6 L/kg; bioavailability [19]: 32%; Cmax [20]: 1600 nM; half-life [21]: 1.3 h; AUC(0-inf) [22]: 755 ng·h/mL; IC50 [23]: > 1000 nM |
|  |  | 200 | 54 | 68 | 75 | 83 | 63 | 69 | 85 | 87 | 250 | Cn1cc(-c2ccnc3[nH]c(C(F)(F)F)cc23)c(-c2ccc(F)cn2)n1 |  |
| 45 | 170 | 140 |  |  |  |  |  |  |  |  |  | Cn1cc(-c2ccnc3[nH]ccc23)c(-c2ccc(F)cc2)n1 | IC50 [13]: 2.2 nM; solubility [14]: > 400 µM; solubility [15]: < 4 µM; Papp A→B at 1 h, 5 µM [16]: 25.9 ×10⁻⁶ cm/s; efflux ratio at 1 h, 5 µM (MDR1): 1.02; IC50 [23]: 250 nM |
